These results are taken from patent US20260217735A1, “HETEROCYCLES AND USES THEREOF” (Kumquat Biosciences Inc., priority 2023, published 2026).

In one assay the target is T1, KRAS WT (Homo sapiens, UniProt P01116).
T1 construct: made in house; host or cells: E. coli, e.g. BL21 (DE3)
The assay can be described thus: HTRF assay, wildtype KRAS interaction with SOS1. In kind it is biochemical. Particulars: bins <500 nM / 500 nM to 1000 nM, read-out: Inhibition of KRAS WT (IC50).

The target of a further assay is T2, KRAS G12V (Homo sapiens, UniProt P01116, G12V).
T2 construct: made in house; host or cells: E. coli, e.g. BL21 (DE3)
The assay can be described thus: HTRF assay, KRAS G12V interaction with SOS1. In kind it is biochemical. The note with it: bins <500 nM / 500 nM to 1000 nM, read-out: Inhibition of KRAS G12V (IC50).

The next assay concerns the target T3, KRAS G12D (Homo sapiens, UniProt P01116, G12D).
T3 construct: made in house; host or cells: E. coli, e.g. BL21 (DE3)
The assay can be described thus: HTRF assay, KRAS G12D interaction with SOS1. In kind it is biochemical. The note with it: bins <500 nM / 500 nM to 1000 nM, read-out: Inhibition of KRAS G12D (IC50). (TR-FRET usually uses a lanthanide donor and a delayed reading to cut background.)

The test system of the next assay is MiaPaca2 cells. The assay can be described thus: Ras cellular assay, growth of cells with K-Ras G12C mutation. In kind it is cell-based. The note with it: Homo sapiens, MIA PaCa-2; cell proliferation assay; bins ≤500 nM / >500 nM; read-out: Inhibition of MiaPaca2 Cells (IC50). The essentials: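 MIA PaCa-2 cells (K-Ras G12C, about 125-150 cells/well) grown in 0.25% soft agar over a 0.6% agar base, compound added on day 2 at 0.3% final DMSO. Growth read on day 10 by Cell Titer 96 AQueous absorbance (490 nm, reference 660 nm) against time-zero wells; IC50 from four-parameter fit.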

In another assay the target is T4, KRAS G12S (Homo sapiens, UniProt P01116, G12S).
T4 construct: made in house; host or cells: E. coli, e.g. BL21 (DE3)
The assay can be described thus: HTRF assay, KRAS G12S interaction with SOS1. In kind it is biochemical. Particulars: bins <500 nM / 500 nM to 1000 nM, read-out: Inhibition of KRAS G12S (IC50).

pIC50: −log10 of the molar value.

T1 sequence (P01116 1-188 isoform P01116-2): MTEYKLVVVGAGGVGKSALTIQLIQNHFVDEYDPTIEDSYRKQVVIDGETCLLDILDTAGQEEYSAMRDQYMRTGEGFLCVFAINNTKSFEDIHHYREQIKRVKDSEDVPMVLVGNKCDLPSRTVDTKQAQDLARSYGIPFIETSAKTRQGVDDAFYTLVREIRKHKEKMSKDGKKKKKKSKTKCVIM
T4 sequence (P01116 1-188 isoform P01116-2 G12S): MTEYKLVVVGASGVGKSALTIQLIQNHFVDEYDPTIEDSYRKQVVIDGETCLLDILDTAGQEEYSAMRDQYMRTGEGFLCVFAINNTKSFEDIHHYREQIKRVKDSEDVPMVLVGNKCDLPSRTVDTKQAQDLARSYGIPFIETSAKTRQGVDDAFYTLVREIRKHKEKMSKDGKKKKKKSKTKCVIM
T3 sequence (P01116 1-188 isoform P01116-2 G12D): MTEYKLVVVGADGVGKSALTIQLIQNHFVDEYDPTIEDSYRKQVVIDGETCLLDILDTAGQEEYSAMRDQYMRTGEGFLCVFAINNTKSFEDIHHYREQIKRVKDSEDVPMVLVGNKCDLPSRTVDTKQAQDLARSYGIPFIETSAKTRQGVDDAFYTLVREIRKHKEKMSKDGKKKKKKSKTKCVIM
T2 sequence (P01116 1-188 isoform P01116-2 G12V): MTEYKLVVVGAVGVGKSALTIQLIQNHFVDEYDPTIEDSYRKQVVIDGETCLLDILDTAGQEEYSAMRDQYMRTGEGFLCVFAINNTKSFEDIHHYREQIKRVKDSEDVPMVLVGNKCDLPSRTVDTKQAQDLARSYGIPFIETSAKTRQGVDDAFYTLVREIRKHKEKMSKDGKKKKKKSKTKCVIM

Turning to `Cc1cn(C(=O)N2CC3(CCCCN(c4nc(OC[C@@]56CCCN5C[C@H](F)C6)nc5c(F)c(-c6ccc(F)c7sc(N)c(C#N)c67)c(Cl)cc45)C3)C2)c(C)n1` [Compound 138, 2-amino-4-(6-chloro-4-(2-(2,4-dimethyl-1H-imidazole-1-carbonyl)-2,6-diazaspiro[3.6]decan-6-yl)-8-fluoro-2-(((2R,7aS)-2-fluorotetrahydro-1H-pyrrolizin-7a(5H)-yl)methoxy)quinazolin-7-yl)-7-fluorobenzo[b]thiophene-3-carbonitrile], the negative logarithm of the IC50 (pIC50) is over 6.30 at KRAS WT; over 6.30 on KRAS G12V; over 6.30 at KRAS G12D; at least 6.30 with MiaPaca2 cells; over 6.30 at KRAS G12S.

As for `CCN(c1nc(OC[C@@]23CCCN2C[C@H](F)C3)nc2c(F)c(-c3ccc(F)c4sc(N)c(C#N)c34)c(C(F)(F)F)cc12)[C@@H]1CCN(C(=O)n2cnc(C#N)c2C)[C@@H]1C` [Compound 139, 1-((2R,3R)-3-((7-(2-amino-3-cyano-7-fluorobenzo[b]thiophen-4-yl)-8-fluoro-2-(((2R,7aS)-2-fluorotetrahydro-1H-pyrrolizin-7a(5H)-yl)methoxy)-6-(trifluoromethyl)quinazolin-4-yl)(ethyl)amino)-2-methylpyrrolidine-1-carbonyl)-5-methyl-1H-imidazole-4-carbonitrile], the pIC50 on KRAS WT was over 6.30; on KRAS G12V it was over 6.30; on KRAS G12D, over 6.30; with MiaPaca2 cells, at least 6.30; at KRAS G12S it was over 6.30.

Regarding `Cc1ncn(C(=O)N2CC3CCN(c4nc(OC[C@@]56CCCN5C[C@H](F)C6)nc5c(F)c(-c6ccc(F)c7sc(N)c(C#N)c67)c(Cl)cc45)C3C2)c1C` (stereo partly drawn) [Compound 140, 2-amino-4-(6-chloro-4-(5-(4,5-dimethyl-1H-imidazole-1-carbonyl)hexahydropyrrolo[3,4-b]pyrrol-1(2H)-yl)-8-fluoro-2-(((2R,7aS)-2-fluorotetrahydro-1H-pyrrolizin-7a(5H)-yl)methoxy)quinazolin-7-yl)-7-fluorobenzo[b]thiophene-3-carbonitrile], the negative logarithm of the IC50 (pIC50) at KRAS WT is over 6.30; at KRAS G12V, over 6.30; on KRAS G12D it was over 6.30; with MiaPaca2 cells, at least 6.30; at KRAS G12S, over 6.30.

For the molecule `Cc1c(C#N)ncn1C(=O)N1CC[C@@H](N(C)c2nc(OC[C@@]34CCCN3C[C@H](F)C4)nc3c(F)c(-c4ccc(F)c5sc(N)c(C#N)c45)c(Cl)cc23)[C@H]1C` [Compound 141, 1-((2R,3R)-3-((7-(2-amino-3-cyano-7-fluorobenzo[b]thiophen-4-yl)-6-chloro-8-fluoro-2-(((2R,7aS)-2-fluorotetrahydro-1H-pyrrolizin-7a(5H)-yl)methoxy)quinazolin-4-yl)(methyl)amino)-2-methylpyrrolidine-1-carbonyl)-5-methyl-1H-imidazole-4-carbonitrile], the pIC50 on KRAS WT is over 6.30; on KRAS G12V, over 6.30; at KRAS G12D, over 6.30; in the assay on MiaPaca2 cells, at least 6.30; on KRAS G12S, over 6.30.

In the case of `Cc1cn(C(=O)N2CC[C@@H](N(C)c3nc(OC[C@@]45CCCN4C[C@H](F)C5)nc4c(F)c(-c5ccc(F)c6sc(N)c(C#N)c56)c(Cl)cc34)[C@H]2C)cn1` [Compound 144, 2-amino-4-(6-chloro-8-fluoro-2-(((2R,7aS)-2-fluorotetrahydro-1H-pyrrolizin-7a(5H)-yl)methoxy)-4-(methyl((2R,3R)-2-methyl-1-(4-methyl-1H-imidazole-1-carbonyl)pyrrolidin-3-yl)amino)quinazolin-7-yl)-7-fluorobenzo[b]thiophene-3-carbonitrile], the negative-log IC50 (pIC50) is over 6.30 at KRAS WT; over 6.30 at KRAS G12V; over 6.30 at KRAS G12D; at least 6.30 with MiaPaca2 cells; over 6.30 on KRAS G12S.

As usually defined, the pIC50 is −log10 of the IC50, conventionally taken in molar units.
